From publication PMC10232738, “Five blueberry anthocyanins and their antioxidant, hypoglycemic, and hypolipidemic effects in vitro” (Frontiers in Nutrition, 2023)
Marks after values point to notes of the source that are not given here.

Assays:
[1] = DPPH radical scavenging assay; settings: 30 min, 517 nm, mean ± SD (n = 3)
Description: DPPH assay was determined according to the reported method ([10]). The tested compounds were dissolved in ethanol and diluted to a series of concentrations to be used as test solutions. A total of 100 μl 0.16 mmol/L DPPH in methanol (5 mg/100 ml) was mixed with 100 μl of the test solution. […] A blank sample containing 100 μl of methanol in the DPPH solution was measured. The same procedure was followed for the positive control, ascorbic acid. All samples were analyzed in triplicate at five different concentrations around the EC50 values.

[2] = ABTS radical cation scavenging assay; settings: 6 min, 734 nm, mean ± SD (n = 3)
Description: The ABTS assay was performed as the reported method ([10]). Briefly, ABTS^+ radical cation was prepared by mixing a 7 mM aqueous stock solution of ABTS^+ and 2.6 mM potassium peroxydisulfate. The reaction mixture was stored in the dark at room temperature for 12 h prior to use. […] Then, 50 μl of the test solution was added to 200 μl of the ABTS^+ radical cation solution. […] A blank sample containing ABTS^+ solution was measured.

[3] = Oxygen radical absorbance capacity (ORAC) assay; settings: Trolox equivalents, pH 7.4, mean ± SD (n = 3)
Description: The oxygen radical absorbance capacity (ORAC) assay was performed according to the reported method with slight modifications ([11]). The assay was carried out in black-walled 96-well plates. Tested compounds were dissolved in 75 mM phosphate buffer (pH 7.4). […] A blank sample containing 20 μl of phosphate buffer in the reaction mix was prepared and measured. The area under the curve (AUC) was calculated for each sample by integrating the relative fluorescence curve. The net AUC of the sample was calculated by subtracting the AUC of the blank. The regression equation between net AUC and series concentration of Trolox was determined to establish a standard curve, and ORAC values were expressed as μmol Trolox equivalents/μmol samples using the standard curve established previously. All samples were analyzed in triplicate.

α-glucosidase = α-glucosidase inhibitory activity assay (p-NPG substrate); type: biochemical, Saccharomyces cerevisiae; settings: pH 6.9, 37°C, mean ± SD (n = 3)
Description: Acetonitrile, methanol, and formic acid (HPLC grade) were obtained from Tedia Co. Inc. (Fairfield, OH, USA). Ethanol and phosphoric acid were purchased from Sinopharm Chemical Reagent Co. Ltd. (Shanghai, China). Folin-Ciocalteu's phenol reagent, 2,2-diphenyl-1-picrylhydrazyl (DPPH), 2,2′-azinobis-3-ethylbenzothiazoline-6-sulfonic acid (ABTS), α-glucosidase (from Saccharomyces cerevisiae), 4-nitrophenyl-α-D-glucose (p-NPG), and 6-hydroxy-2,5,7,8-tetramethylchroman-2-carboxylic acid (Trolox) were obtained from Sigma-Aldrich (St. Louis, MO, USA). Sodium fluorescein, 2,2′-azobis-2-amidino-propane (AAPH), metformin (Met), oleic acid (OA), and 2-[N-(7-Nitrobenz-2-oxa-1,3-diazol-4-yl)amino]-2-deoxy-D-glucose (2-NDBG) were obtained from Aladdin (Shanghai, China). The assay kits of triglycerides (TG), total cholesterol (TC), and oil-red-O staining were obtained from Jiancheng Bioengineering Institute (Nanjing, China). The BCA assay kit was obtained from Biosharp (Hefei, China). Dulbecco's modified Eagle's medium (DMEM), penicillin-streptomycin, and fetal bovine serum (FBS) were purchased from Invitrogen-Gibco (Grand Island, NY). The chemicals and reagents used in this study were all of pure analytical grade.
The α-glucosidase inhibitory activity was determined as previous methods with slight modifications ([12]). In short, the diluted sample working solution (1 μl) was added to 3 μl of α-glucosidase (0.5 U/ml in 0.1 M sodium phosphate buffer, pH 6.9) and 156 μl of 0.1 M sodium phosphate buffer (pH 6.9). Then, the mixture was incubated at 37°C for 20 min, and 40 μl of 1.5 mM p-NPG (dissolved in 100 mM sodium phosphate buffer, pH 6.9) was added and incubated for 20 min. Absorbance was measured by a microplate reader (Molecular Device, Sunnyvale, CA, USA). A complete reaction mixture without a sample was used as the control. Three parallel operations were performed. All the samples were analyzed in triplicate at five different concentrations around the IC50 values.

HepG2 cells [4] = experiment: 2-NBDG glucose uptake in HG-OA stimulated HepG2 cells; type: cell-based, Human; settings: 12 h, HG-OA (36 mM glucose, 0.25 mM OA) treated HepG2, p < 0.001 vs model
Description: (§1) HepG2 cells were starved in DMEM with 2% FBS for 9 h. To establish an in vitro model of diabesity, cells were stimulated with high glucose (36 mM glucose) and 0.25 mM OA for 12 h according to our previous study ([14]). Then, BB1-BB5 (50 and 100 μM) and Met (100 μM) were added for another 12 h. OA or BB1-BB5 was dissolved in DMSO and added to HepG2 cells in DMEM, and the final DMSO concentration received by the cells was 0.1% (v/v).
After the model was established, HepG2 cells were treated with BB1-BB5 (50 and 100 μM in low and high doses, respectively) for 12 h. 2-NBDG, a fluorescent deoxyglucose, was added to measure glucose uptake ([15]). The culture solution was discarded, and 2-NBDG (100 μM, diluted in DMEM without serum) was added and incubated again for 40 min. […] In total, eight parallels were set up for each sample.

HepG2 cells [5] = experiment: Intracellular total cholesterol (TC) in HG-OA stimulated HepG2 cells; type: cell-based, Human; settings: 12 h, HG-OA treated HepG2, vs model group
Description: as §1
After the model was established, HepG2 cells were treated with BB1–BB5 (50 and 100 μM in low and high doses, respectively) in 6-well plates for 12 h. The culture solution was discarded, and 200 μl of RIPA lysis buffer was added after three washes with PBS and placed on a shaker for 10 min. The cell contents were homogenized and centrifuged (4°C, 10,000 rpm) to extract the supernatant. The TC and TG level in HepG2 cells were tested using the commercial kit by glycerol phosphate oxidase (GPO)-peroxidase (PAP) method based on several enzyme-driven reactions. The end product, hydrogen peroxide, which can be oxidatively coupled with 4-aminoantipyrine and phenol in the presence of peroxidase to yield a chromogen, was measured at 500 nm ([16]). In total, eight replicates were set for each sample.

EC50 [1]	EC50 [2]	IC50 (α-glucosidase)	SMILES	ORAC [3]	Glucose uptake capacity (2-NBDG fluorescence) (HepG2 cells [4]; 100 μM)	Intracellular TC levels (HepG2 cells [5]; 50 μM)	Intracellular TC levels (HepG2 cells [5]; 100 μM)	Glucose uptake capacity (2-NBDG fluorescence) (HepG2 cells [4]; 50 μM)
62.11 ± 0.27 µM	39.3 ± 1.55 µM	218 ± 22.7 µM	COc1cc(-c2[o+]c3cc(O)cc(O)c3cc2O[C@@H]2O[C@H](CO)[C@@H](O)[C@H](O)[C@H]2O)cc(O)c1O [BB4, petunidin-3-O-glucoside]	11.02 ± 0.16^c μmol Trolox/μmol	significant increase	noticeably reduced	noticeably reduced	
63.2 ± 2 µM	24.2 ± 1.88 µM	68.5 ± 20.9 µM	COc1cc(-c2[o+]c3cc(O)cc(O)c3cc2OC2OC(CO)C(O)C(O)C2O)cc(O)c1O (centres unmarked) [BB3, petunidin-3-O-galactoside]	11.31 ± 0.22^c μmol Trolox/μmol	significant increase		noticeably reduced	significant increase

The remaining lines, values behind:

SMILES	EC50 [1]	EC50 [2]	IC50 (α-glucosidase)	ORAC [3]	Glucose uptake capacity (2-NBDG fluorescence) (HepG2 cells [4]; 100 μM)	Intracellular TC levels (HepG2 cells [5]; 50 μM)	Intracellular TC levels (HepG2 cells [5]; 100 μM)	Glucose uptake capacity (2-NBDG fluorescence) (HepG2 cells [4]; 50 μM)
O=C1O[C@H]([C@@H](O)CO)C(O)=C1O [ascorbic acid, reference compound]	112 ± 15.3 µM	44.5 ± 0.55 µM						
OC[C@H]1O[C@@H](Oc2cc3c(O)cc(O)cc3[o+]c2-c2cc(O)c(O)c(O)c2)[C@H](O)[C@@H](O)[C@@H]1O [BB2, delphinidin-3-O-glucoside]	61.4 ± 2.29 µM	20.7 ± 0.67 µM	240 ± 9.2 µM	9.44 ± 0.12^d μmol Trolox/μmol	significant increase			
COc1cc(-c2[o+]c3cc(O)cc(O)c3cc2OC2OC(CO)C(O)C(O)C2O)cc(OC)c1O (centres unmarked) [BB5, malvidin-3-O-galactoside]	38.8 ± 3.33 µM	14.3 ± 1 µM	185 ± 10.9 µM	11.89 ± 0.13^b μmol Trolox/μmol	significant increase		noticeably reduced	significant increase
OCC1OC(Oc2cc3c(O)cc(O)cc3[o+]c2-c2cc(O)c(O)c(O)c2)C(O)C(O)C1O (centres unmarked) [BB1, delphinidin-3-O-galactoside]	39.91 ± 0.24 µM	19 ± 0.2 µM	68.3 ± 12.4 µM	13.23 ± 0.03^a μmol Trolox/μmol				
